Assay results from US6426202B1, “Nystatin-resistant Aspergillus terreus CLS 247-13, KCTC 0673BP for preparing triol heptanoic acid employing the same” (priority 1999, dated 2002).

Experiments:
[1] = system: parent strain Aspergillus terreus CLS216-7; experiment: Minimal inhibitory concentration of nystatin, parent strain; format: cell-based; settings: parent strain CLS216-7
Protocol: (§1) After incubating the culture in a liquid minimal medium containing nystatin for 1.5-3 hours, it was washed with saline solution, concentrated, diluted properly, and spreaded onto solid minimal medium containing 150 μg/ml of nystatin, and then the resultant was incubated at 28° C. for 8-15 days to isolate viable mutant strains. The isolated mutant strains resistant to nystatin, showing various morphological characteristics, were subcultured on solid minimal media containing increasing concentrations of nystatin (i.e., 150, 160, 170, 180, 190 and 200 […]) to select mutants showing increased resistance. The nystatin-resistant mutants thus obtained were incubated in an agar slant medium for 15-20 days. The spores formed were recovered in a 20% glycerin solution and subjected to liquid culture as disclosed in Example 2 below. As a result, the productivity of mevinolinic acid decreased and a variety of its analogues appeared. The mutant showing a high productivity of triol heptanoic acid of at least 11.5 g/L was selected and named ‘Aspergillus terreus CLS247-13’. Aspergillus terreus CLS247-13 maintained morphological characteristics, resistance to nystatin and high productivity of triol heptanoic acid constantly on a solid minimal medium containing 2 g/L of yeast extract for 10 generations. […]

[2] = system: mutant strain Aspergillus terreus CLS247-13; experiment: Minimal inhibitory concentration of nystatin, mutant strain; format: cell-based
Protocol: as §1

Question: Which results are given for `C[C@@H]1[C@H](O)[C@@H](C)/C=C/C=C/CC/C=C/C=C/C=C/C=C/C(O[C@H]2O[C@H](C)[C@@H](O)[C@H](N)[C@@H]2O)CC2O[C@](O)(CC(O)C(O)CCC(O)CC(O)CC(O)CC(=O)O[C@H]1C)CC(O)C2C(=O)O` (stereo partly drawn) [nystatin]?
Answer: Minimal inhibitory conc. of nystatin [1]: ≦25 μg/ml; Minimal inhibitory conc. of nystatin ([2]; mutant strain CLS247-13): ≦200 μg/ml; increase of minimal inhibitory concentration of nystatin (resistance to nystatin) compared with parent strain ([2]; mutant strain CLS247-13 compared with parent strain CLS216-7): 8 fold
